{
  "source": "patent US20170269060A1",
  "about": "“Assays and Compounds to Treat Kidney Diseases” (Rush University Medical Center, priority 2014, published 2017)",
  "key": {"C57BL/6J mice": {"tested_on": "C57BL/6J mice", "assay": "LPS-induced proteinuria in mice", "assay_type": "in vivo, mouse", "experimental": "The induction of proteinuria in female wild type C57BL/6J mice (n=6-13 per group) by LPS injection was performed as described. (Reiser et al., J Clin Invest, 2004; Yanagida-Asanuma et al., The American Journal of Pathology, 2007; Faul et al., Nat Med, 2008; Yu et al., The New England Journal of Medicine, 2013.) Briefly, 10 week old female mice were intraperitoneally injected with LPS (10 mg/kg, in saline). Control mice were injected with saline alone. Animals in the treatment groups were treated with vehicle or 10 mg/kg pyr (stock in DMSO) diluted in saline 2 h prior to the administration of LPS. Spot urine was collected from each group of animals for measurement of albuminuria as mg albumin per mg creatinine. (Faul et al., Nat Med, 2008) Results are expressed as mean±SEM. The mice were sacrificed and the efficacy of pyrintegrin was further analyzed by histochemical and immunofluorescence analyses.\nFor light microscopy, freshly harvested mouse kidney tissue was embedded in OCT, snap frozen in liquid nitrogen and stored at −80° C. Tissue sections were cut and fixed in −20° C. acetone before immunofluorescence staining. Sections were blocked at room temperature for 1 h and incubated with the primary antibodies against total β1 integrin (hamster anti-mouse, BioLegend), active β1 integrin (Lentner et al., PNAS, 1993.) (rat anti-mouse antibody 9EG7, BD Biosciences) and synaptopodin (polyclonal goat, SC-21537, Santa Cruz) at 4° C. overnight. Slides were incubated with appropriate fluorescently labeled secondary antibodies (Life Technologies, CA) and mounted with DAPI containing mounting solution (Vector Laboratories, Burlingame, Calif.). Fluorescence images were acquired using a Zeiss 700 LSM confocal microscope with a 20× objective and analyzed using the Zen software (Carl Zeiss Group, Hartford, Conn.). For transmission electron microscopy (TEM), tissues were fixed, embedded, sectioned, and stained as previously described. Nature Medicine, 2008.) Images were acquired using Zeiss SIGMA HD VP electron microscope. […]"}, "murine podocytes": {"tested_on": "murine podocytes", "assay": "Podocyte HCS phenotypic assay, PAN-induced podocyte injury", "assay_type": "cell-based", "experimental": "Conditionally immortalized human and murine podocytes were used in a majority of the assays. Human and murine podocytes were cultured as have been described previously (Saleem et al., JASN 13, 630-638 (2002); Mundel, Reiser et al., Experimental Cell Research, 236, p 248 (1997)). For example, murine podocytes derived from the mouse line H-2Kb-tsA58 were cultured under permissive conditions at 33° C. on rat-tail collagen coated dishes in RPMI medium supplemented with 10% heat inactivated FBS, penicillin and streptomycin (100 U/ml), and 10 U/ml recombinant mouse γ-interferon. Cells were then trypsinized and re-plated for differentiation at 37° C. in medium without γ-interferon. The cells were differentiated for 0 to 7 days and then reseeded to rat-tail collagen coated multi-well plates at a density of 1500/well or 500/well for 96 and 384 well plates, respectively. Cells were then further differentiated for another 5-14 days in the multi-well plates for subsequent experimentation with various reagents prior to fixation and analyses.\nIn some embodiments, podocytes were cultured at 37° C. for the first 7 days of differentiation in large tissue culture flasks and subsequently reseeded and further cultured at 37° C. in the 96-well assay plates for the next 4-6 days to provide low well-to-well variability in cell number in the assay plates and healthy podocytes expressing specific and well characterized podocyte markers synaptopodin and podocin.\nDifferentiated podocytes were cultured in 96-well or 384-well multiwall optical plates (PerkinElmer, Boston, Mass.). In some embodiments, differentiated podocytes were treated with various amounts of puromycin aminonucleoside (PAN), […] LPS, Adriamycin and other agents. In some embodiments, the cells were co-treated with chemical and other agents (such as mizouribine) to prevent damage from damaging agents (such as PAN). In other embodiments, the rescue agents were added 0-48 h after the addition of injury causing agents. In some embodiments, patient samples such as blood, serum, urine or other samples were added to differentiated podocytes to identify disease causing agents. In some embodiments, primary, differentiated patient podocytes were cultured to identify defects in structure and/or function.\nAfter culturing for the appropriate time and treatment or control, cultured podocytes in multi-well optical plates were rinsed with phosphate buffered saline (PBS) and subsequently fixed using a solution of paraformaldehyde and sucrose in PBS (at a final concentration of 4% paraformaldehyde and 2% sucrose in PBS) for 30 min at room temperature. Following fixation, the cells were permeabilization using a solution of 0.3% Triton X-100 in PBS for 15 min at room temperature. For visualization of filamentous-actin (F-Actin) in cells, cells were stained with a solution of Alexa fluor 568 phalloidin (Invitrogen), as previously described. HCS CellMask Blue (Invitrogen) was used as a fluorescent stain for visualizing nuclei, cytoplasm and the individual cell boundaries. Additional proteins that were fluorescently labeled and analyzed using appropriate primary mAbs include synaptopodin (synpo, primary mAb from Santa Cruz), Paxillin (primary mAb clone Y113 from Millipore) for quantitation of focal adhesions, beta1 integrin, podocin, WT1 nephrin, CD2-AP may also be used. Other proteins may also be used for labeling. Appropriate secondary antibodies (fluorescently labeled) were used for fluorescent visualizations. High throughput confocal microscopy was done using the Opera LX (Perkin Elmer) with filters and exposure times according to manufacturer's instructions and as described before. Images were used in subsequent image analysis for quantitation of a variety of cellular parameters. Assays were performed in replicate wells for assay robustness.\nImages for each frame of each well in multiple fluorescent channels were acquired using OPERA imaging system. […]"}},
  "data": [
    {"smiles": "O=S(=O)(NCC1CC1)c1ccc(Nc2nccc(N3CCCc4cc(O)ccc43)n2)cc1", "note": "[Pyrintegrin]", "values": [
      {"measurement": "proteinuria, albumin per creatinine in urine", "setting": "C57BL/6J mice; C57BL/6 mice, LPS 10 mg/kg i.p., pyrintegrin 10 mg/kg, 24 hours", "value": "0.668±0.074 mg albumin per 1 mg creatinine"},
      {"measurement": "active β1 integrin levels in glomeruli (antibody 9EG7)", "setting": "C57BL/6J mice; mice, 24 hours after LPS, confocal microscopy", "value": "significant protection of the active β1 levels"},
      {"measurement": "protection from LPS-induced podocyte FP effacement", "setting": "C57BL/6J mice; mice, pyrintegrin 10 mg/kg, electron microscopy", "value": "significant protection"},
      {"measurement": "prevention of PAN induced injury, dose-response of percent damaged cells (FIG. 4A-4P)", "setting": "murine podocytes; 30 ug/ml PAN, co-treatment, multi-parameter algorithm", "value": "prevented PAN induced injury"},
      {"measurement": "EC50", "setting": "murine podocytes; PAN 16 μg/ml, 48 hours, F-actin fibers per cell (FIG. 8), read-out: apparent half-maximal effective concentration (EC50), protection from PAN-induced damage", "value": 800, "unit": "nM"},
      {"measurement": "dose-dependent protection of podocytes from PAN-induced injury", "setting": "murine podocytes; PAN 16-30 μg/ml, 48 hours, F-actin fibers and other parameters", "value": "dose dependently protected"},
      {"measurement": "loss of actin stress fibers and focal adhesion complexes on PAN-induced injury", "setting": "murine podocytes; PAN cotreatment (FIG. 9B)", "value": "protected podocytes from the loss of actin stress fibers and focal adhesion complexes"},
      {"measurement": "actin stress fibers in healthy cells", "setting": "murine podocytes; healthy cells, no PAN", "value": "small but significant increase in actin stress fibers"}
    ]}
  ]
}
